Laboratory results from patent publication US20200405696A1, “INHIBITORS OF INDOLEAMINE 2,3-DIOXYGENASE AND/OR TRYPTOPHAN 2,3-DIOXYGENASE” (IDORSIA PHARMACEUTICALS LTD, priority 2018, published 2020).

Tests used:
[1] = biological target: T1, Recombinant full-length human IDO1 (Homo sapiens, UniProt P14902); assay: IDO1 enzymatic assay (NFK quantified by LCMS); format: biochemical; details: 2 nM enzyme, 5 μM L-tryptophan, pH6.5, 30 minutes pre-incubation at RT; mean values when measured multiple times; read-out: hIDO activity (IC50 in nM)
T1 construct: Recombinant full-length human IDO1 with a N-terminal hexahistidine tag; hexahistidine (His6) (N); made in house; host or cells: E. coli
T1 sequence (P14902 whole entry): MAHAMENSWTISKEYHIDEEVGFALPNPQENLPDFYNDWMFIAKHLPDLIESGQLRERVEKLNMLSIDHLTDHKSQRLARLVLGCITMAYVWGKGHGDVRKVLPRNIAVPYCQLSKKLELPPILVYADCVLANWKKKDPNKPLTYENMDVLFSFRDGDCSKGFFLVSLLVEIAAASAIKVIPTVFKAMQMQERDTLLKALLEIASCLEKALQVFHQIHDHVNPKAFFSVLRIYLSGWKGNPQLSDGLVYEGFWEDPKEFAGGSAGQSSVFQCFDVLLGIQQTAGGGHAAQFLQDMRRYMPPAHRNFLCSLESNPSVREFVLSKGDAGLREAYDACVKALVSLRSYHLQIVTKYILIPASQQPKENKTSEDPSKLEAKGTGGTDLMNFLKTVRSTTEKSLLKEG
Procedure: 1) Testing Compounds for IDO Inhibitory Activity in an IDO1 Enzymatic Assay:
Recombinant full-length human IDO1 with a N-terminal hexahistidine tag expressed in E. coli and purified to homogeneity is incubated at a final concentration of 2 nM in assay buffer consisting of 37.5 mM phosphate buffer at pH6.5 supplemented with 10 mM ascorbic acid, 0.45 μM methylene blue, 50U/ml catalase, 0.01% BSA, and 0.01% Tween 20 (protocol modified from Seegers et al, JBS 2014). Example compounds are serially diluted in DMSO, further diluted in phosphate buffer, and added to the enzyme at final concentrations ranging from 10 μM to 0.5 nM. The final DMSO concentration is 0.6%. Following a pre-incubation of 30 minutes at RT, the reaction is started by the addition of L-tryptophan at a final concentration of 5 μM in assay buffer. After 30 minutes of incubation at RT, 3 μL of the 20 μl reaction mixture are transferred to a 384 deep well plate containing 25 μL of deionized water. 100 μl of 200 nM L-Tryptophan-(indole-d5) in cold 100% methanol are added followed by a 10 minutes centrifugation at 3220×g at 4° C. An additional 75 μL of deionized water are then added followed by a 10 minutes centrifugation at 3220×g at 4° C. The product of the reaction N′-Formylkynurenine (NFK) is quantified by LCMS and normalized to the L-Tryptophan-(indole-d5) signal. Samples with 0.6% DMSO (0% effect) and a TDO/IDO inhibitor (100% effect) are used as control samples to set the parameters for the non-linear regression necessary for the determination of the half-maximal inhibitory concentration (IC50) for each compound. For each compound concentration the percentage of activity compared to 0% and 100% effect is calculated as average±STDEV (each concentration measured in duplicate). IC50 values and curves are generated with XLfit software (IDBS) using Dose-Response One Site model 203 (four parameter logistic curve model). The calculated IC50 values may fluctuate depending on the daily assay performance. Fluctuations of this kind are known to those skilled in the art. When compounds are measured multiple times, mean values are given.

[2] = biological target: T2, Recombinant human TDO comprising amino acids 19-407 (Homo sapiens, UniProt P48775); assay: TDO2 enzymatic assay (NFK quantified by LCMS); format: biochemical; details: 15 nM enzyme, 200 μM L-tryptophan, pH7, 30 minutes pre-incubation at RT; mean values when measured multiple times; read-out: hTDO activity (IC50 in nM)
T2 construct: Recombinant human TDO comprising amino acids 19-407 with a N-terminal hexahistidine tag; hexahistidine (His6) (N); made in house; host or cells: E. coli
T2 sequence (P48775 19-406 limits assumed): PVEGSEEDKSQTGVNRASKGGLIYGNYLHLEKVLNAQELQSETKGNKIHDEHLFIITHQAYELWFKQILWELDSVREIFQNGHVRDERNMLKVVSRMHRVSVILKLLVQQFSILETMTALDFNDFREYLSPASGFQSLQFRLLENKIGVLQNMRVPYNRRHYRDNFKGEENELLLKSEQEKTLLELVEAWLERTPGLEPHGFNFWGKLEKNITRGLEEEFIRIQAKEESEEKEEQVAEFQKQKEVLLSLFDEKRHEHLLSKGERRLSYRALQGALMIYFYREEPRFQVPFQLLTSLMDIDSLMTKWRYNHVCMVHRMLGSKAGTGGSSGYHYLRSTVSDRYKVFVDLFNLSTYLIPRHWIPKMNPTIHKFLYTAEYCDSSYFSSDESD
Procedure: 2) Testing Compounds for TDO Inhibitory Activity in a TDO2 Enzymatic Assay:
Recombinant human TDO comprising amino acids 19-407 with a N-terminal hexahistidine tag expressed in E. coli and purified to homogeneity is incubated at a final concentration of 15 nM in assay buffer consisting of 75 mM phosphate buffer at pH7 supplemented with 100 μM ascorbic acid, 50U/ml Catalase, 0.01% BSA, and 0.01% Tween 20 (protocol modified from Seegers et al, JBS 2014). Example compounds are serially diluted in DMSO, further diluted in phosphate buffer, and added to the reaction mixture at final concentrations ranging from 10 μM to 0.5 nM. The final DMSO concentration is 0.6%. Following a pre-incubation of 30 minutes at RT, the reaction is started by the addition of L-tryptophan at a final concentration of 200 μM in assay buffer. After 30 minutes of incubation at RT, 3 μL of the reaction mixture are transferred to a 384 deep well plate containing 25 μL of deionized water. 100 μl of 200 nM L-Tryptophan-(indole-d5) in cold 100% methanol are added followed by a 10 minutes centrifugation at 3220×g at 4° C. An additional 75 μL of deionized water are then added followed by a 10 minutes centrifugation at 3220×g at 4° C. The product of the reaction N′-Formylkynurenine (NFK) is quantified by LCMS and normalized to the L-Tryptophan-(indole-d5) signal. Samples with 0.6% DMSO (0% effect) and a TDO/IDO inhibitor (100% effect) are used as control samples to set the parameters for the non-linear regression necessary for the determination of the half-maximal inhibitory concentration (IC50) for each compound. For each compound concentration the percentage of activity compared to 0% and 100% effect is calculated as average±STDEV (each concentration measured in duplicate). IC50 values and curves are generated with XLfit software (IDBS) using Dose-Response One Site model 203 (four parameter logistic curve model). The calculated IC50 values may fluctuate depending on the daily assay performance. Fluctuations of this kind are known to those skilled in the art. When compounds are measured multiple times, mean values are given.

Row | Compound | IC50 [1] [nM] | IC50 [2] [nM]
1 | Cn1cc(-n2cc(C(O)c3c(C4CC4)sc4cncn34)nn2)cn1 (racemic) [Example 43, rac-(2-Cyclopropyl-imidazo[5,1-b]thiazol-3-yl)-[1-(1-methyl-1H-pyrazol-4-yl)-1H-[1,2,3]triazol-4-yl]-methanol] | 95 | > 10200
2 | COc1ccc(-n2cc(C(O)c3c(C4(C)CC4)sc4cncn34)nn2)cc1 (racemic) [Example 44, rac-[1-(4-Methoxy-phenyl)-1H-[1,2,3]triazol-4-yl]-[2-(1-methyl-cyclopropyl)-imidazo[5,1-b]thiazol-3-yl]-methanol] | 38.8 | > 10200
3 | OC(c1cn(-c2ccc(OCc3ccccc3)cc2)nn1)c1c(C2CC2)sc2cncn12 (racemic) [Example 45, rac-[1-(4-Benzyloxy-phenyl)-1H-[1,2,3]triazol-4-yl]-(2-cyclopropyl-imidazo[5,1-b]thiazol-3-yl)-methanol] | 46.4 | > 10200
4 | CCOc1ccc(-n2cc(C(O)c3c(CC)sc4cncn34)nn2)cn1 (racemic) [Example 46, rac-[1-(6-Ethoxy-pyridin-3-yl)-1H-[1,2,3]triazol-4-yl]-(2-ethyl-imidazo[5,1-b]thiazol-3-yl)-methanol] | 14.3 | > 10200
5 | CCc1sc2cncn2c1C(O)c1cn(-c2ccc(N3CCOCC3)cc2)nn1 (racemic) [Example 47, rac-(2-Ethyl-imidazo[5,1-b]thiazol-3-yl)-[1-(4-morpholin-4-yl-phenyl)-1H-[1,2,3]triazol-4-yl]-methanol] | 44.4 | > 10200
6 | CCc1sc2cncn2c1C(O)c1cn(-c2ccc(C3(CO)CC3)cc2)nn1 (racemic) [Example 48, rac-(2-Ethyl-imidazo[5,1-b]thiazol-3-yl)-{1-[4-(1-hydroxymethyl-cyclopropyl)-phenyl]-1H-[1,2,3]triazol-4-yl}-methanol] | 60.6 | > 10200
7 | CCc1sc2cncn2c1C(O)c1cn(-c2ccc(NC(=O)OC)cc2)nn1 (racemic) [Example 49, rac-(4-{4-[(2-Ethyl-imidazo[5,1-b]thiazol-3-yl)-hydroxy-methyl]-[1,2,3]triazol-1-yl}-phenyl)-carbamic Acid Methyl Ester] | 10.9 | 2110
8 | CCc1sc2cncn2c1C(O)c1cn(-c2ccc3[nH]ccc3c2)nn1 (racemic) [Example 50, rac-(2-Ethyl-imidazo[5,1-b]thiazol-3-yl)-[1-(1H-indol-5-yl)-1H-[1,2,3]triazol-4-yl]-methanol] | 9.63 | 1970
9 | CCc1sc2cncn2c1C(O)c1cn(-c2cccc(C#N)c2)nn1 (racemic) [Example 51, rac-3-{4-[(2-Ethyl-imidazo[5,1-b]thiazol-3-yl)-hydroxy-methyl]-[1,2,3]triazol-1-yl}-benzonitrile] | 37.1 | > 10200
10 | CCc1sc2cncn2c1C(O)c1cn(-c2cncc3ccccc23)nn1 (racemic) [Example 52, rac-(2-Ethyl-imidazo[5,1-b]thiazol-3-yl)-(1-isoquinolin-4-yl-1H-[1,2,3]triazol-4-yl)-methanol] | 41.8 | 5060
11 | CCc1sc2cncn2c1C(O)c1cn(Cc2ccccc2)nn1 (racemic) [Example 53, rac-(1-Benzyl-1H-[1,2,3]triazol-4-yl)-(2-ethyl-imidazo[5,1-b]thiazol-3-yl)-methanol] | 73.6 | > 10200
12 | CCc1sc2cncn2c1C(O)c1cn(-c2ccc(OCC3CC3)cc2)nn1 (racemic) [Example 54, rac-[1-(4-Cyclopropylmethoxy-phenyl)-1H-[1,2,3]triazol-4-yl]-(2-ethyl-imidazo[5,1-b]thiazol-3-yl)-methanol] | 12.3 | > 10200
13 | CCOc1ccc(-n2cc(C(O)c3c(C)sc4cncn34)nn2)cn1 (racemic) [Example 55, rac-[1-(6-Ethoxy-pyridin-3-yl)-1H-[1,2,3]triazol-4-yl]-(2-methyl-imidazo[5,1-b]thiazol-3-yl)-methanol] | 205 | > 10200
14 | Cc1sc2cncn2c1C(O)c1cn(-c2ccc(N3CCOCC3)cc2)nn1 (racemic) [Example 56, rac-(2-Methyl-imidazo[5,1-b]thiazol-3-yl)-[1-(4-morpholin-4-yl-phenyl)-1H-[1,2,3]triazol-4-yl]-methanol] | 422 | > 10200
15 | Cc1sc2cncn2c1C(O)c1cn(-c2ccc(C3(CO)CC3)cc2)nn1 (racemic) [Example 57, rac-{1-[4-(1-Hydroxymethyl-cyclopropyl)-phenyl]-1H-[1,2,3]triazol-4-yl}-(2-methyl-imidazo[5,1-b]thiazol-3-yl)-methanol] | 391 | > 10200
16 | COC(=O)Nc1ccc(-n2cc(C(O)c3c(C)sc4cncn34)nn2)cc1 (racemic) [Example 58, rac-(4-{4-[Hydroxy-(2-methyl-imidazo[5,1-b]thiazol-3-yl)-methyl]-[1,2,3]triazol-1-yl}-phenyl)-carbamic Acid Methyl Ester] | 69.1 | 8050
17 | Cc1sc2cncn2c1C(O)c1cn(-c2ccc3[nH]ccc3c2)nn1 (racemic) [Example 59, rac-[1-(1H-Indol-5-yl)-1H-[1,2,3]triazol-4-yl]-(2-methyl-imidazo[5,1-b]thiazol-3-yl)-methanol] | 50.4 | 8400
18 | Cc1sc2cncn2c1C(O)c1cn(-c2cccc(C#N)c2)nn1 (racemic) [Example 60, rac-3-{4-[Hydroxy-(2-methyl-imidazo[5,1-b]thiazol-3-yl)-methyl]-[1,2,3]triazol-1-yl}-benzonitrile] | 294 | > 10200
19 | Cc1sc2cncn2c1C(O)c1cn(-c2cncc3ccccc23)nn1 (racemic) [Example 61, rac-(1-Isoquinolin-4-yl-1H-[1,2,3]triazol-4-yl)-(2-methyl-imidazo[5,1-b]thiazol-3-yl)-methanol] | 493 | > 10200
20 | Cc1sc2cncn2c1C(O)c1cn(Cc2ccccc2)nn1 (racemic) [Example 62, rac-(1-Benzyl-1H-[1,2,3]triazol-4-yl)-(2-methyl-imidazo[5,1-b]thiazol-3-yl)-methanol] | 795 | > 10200
21 | Cc1sc2cncn2c1C(O)c1cn(-c2ccc(OCC3CC3)cc2)nn1 (racemic) [Example 63, rac-[1-(4-Cyclopropylmethoxy-phenyl)-1H-[1,2,3]triazol-4-yl]-(2-methyl-imidazo[5,1-b]thiazol-3-yl)-methanol] | 27.7 | > 10200
22 | COc1ccc(-n2cc(C(O)c3c(-c4cccc(F)c4)sc4cncn34)nn2)cc1 (racemic) [Example 64, rac-[2-(3-Fluoro-phenyl)-imidazo[5,1-b]thiazol-3-yl]-[1-(4-methoxy-phenyl)-1H-[1,2,3]triazol-4-yl]-methanol] | 177 | > 10200
